# Results published in the NIST ThermoML archive (doi:10.1016/j.jct.2012.03.005).
# ± gives the expanded uncertainty stated by the source.
# Assay: activity coefficient (dimensionless); of the first substance listed, at infinite dilution; xn = mol fraction of the nth substance listed
# Conditions: 101 kPa, Liquid, Chromatography, x1 = 0
SMILES,activity coefficient (308.15 K),activity coefficient (318.15 K),activity coefficient (328.15 K),activity coefficient (338.15 K),activity coefficient (348.15 K),activity coefficient (358.15 K)
CCO [ethanol] + CCn1cc[n+](C)c1.CS(=O)(=O)[O-],0.489 ± 0.037,0.483 ± 0.037,0.479 ± 0.037,0.474 ± 0.037,0.47 ± 0.04,0.467 ± 0.036
CO [methanol] + CCn1cc[n+](C)c1.CS(=O)(=O)[O-],0.223 ± 0.029,0.225 ± 0.029,0.228 ± 0.029,0.229 ± 0.029,0.232 ± 0.029,0.234 ± 0.029
CCCCCCCCC [nonane] + CCn1cc[n+](C)c1.CS(=O)(=O)[O-],911 ± 63,779 ± 54,690 ± 48,607 ± 42,547 ± 38,507 ± 35
CC(C)OC(C)C [diisopropyl ether] + CCn1cc[n+](C)c1.CS(=O)(=O)[O-],79.6 ± 5.5,74.3 ± 5.1,68.7 ± 4.7,64.8 ± 4.4,60.6 ± 4.2,–
C=CCCCCC [1-heptene] + CCn1cc[n+](C)c1.CS(=O)(=O)[O-],148 ± 10,134 ± 9,122 ± 8,112 ± 8,102 ± 7,–
c1ccncc1 [pyridine] + CCn1cc[n+](C)c1.CS(=O)(=O)[O-],1.56 ± 0.1,1.57 ± 0.1,1.59 ± 0.11,1.6 ± 0.1,1.62 ± 0.11,1.64 ± 0.11
CCC[N+](=O)[O-] [1-nitropropane] + CCn1cc[n+](C)c1.CS(=O)(=O)[O-],2.36 ± 0.16,2.37 ± 0.16,2.37 ± 0.16,2.38 ± 0.16,2.39 ± 0.16,2.39 ± 0.16
C#CCCCC [1-hexyne] + CCn1cc[n+](C)c1.CS(=O)(=O)[O-],7.87 ± 0.54,8.07 ± 0.55,8.06 ± 0.55,8.29 ± 0.57,8.27 ± 0.56,–
CCc1ccccc1 [ethylbenzene] + CCn1cc[n+](C)c1.CS(=O)(=O)[O-],18.1 ± 1.2,17.5 ± 1.2,17.1 ± 1.2,16.5 ± 1.1,16.1 ± 1.1,15.6 ± 1.1
C=C(C)c1ccccc1 [(1-methylethenyl)benzene] + CCn1cc[n+](C)c1.CS(=O)(=O)[O-],10.7 ± 0.7,10.9 ± 0.7,11.1 ± 0.8,11.2 ± 0.8,11.3 ± 0.8,11.5 ± 0.8
C1CCCCC1 [cyclohexane] + CCn1cc[n+](C)c1.CS(=O)(=O)[O-],83.6 ± 5.7,73.9 ± 5.1,67.6 ± 4.6,59.6 ± 4.1,53.7 ± 3.7,–
C=Cc1ccccc1 [styrene] + CCn1cc[n+](C)c1.CS(=O)(=O)[O-],5.68 ± 0.39,5.71 ± 0.39,5.75 ± 0.39,5.79 ± 0.39,5.82 ± 0.4,5.85 ± 0.4
CCCO [propan-1-ol] + CCn1cc[n+](C)c1.CS(=O)(=O)[O-],0.761 ± 0.05,0.75 ± 0.05,0.736 ± 0.049,0.724 ± 0.048,0.716 ± 0.048,0.708 ± 0.047
C1CCOC1 [tetrahydrofuran] + CCn1cc[n+](C)c1.CS(=O)(=O)[O-],5.42 ± 0.37,5.3 ± 0.36,5.2 ± 0.4,5.1 ± 0.35,5 ± 0.34,4.91 ± 0.33
COC(C)(C)C [2-methoxy-2-methylpropane] + CCn1cc[n+](C)c1.CS(=O)(=O)[O-],23.6 ± 1.6,22.5 ± 1.5,21.7 ± 1.5,20.7 ± 1.4,20 ± 1.4,–
CCOC(C)(C)C [2-ethoxy-2-methylpropane] + CCn1cc[n+](C)c1.CS(=O)(=O)[O-],66.5 ± 4.6,60.8 ± 4.2,57.1 ± 3.9,53.5 ± 3.7,50 ± 3.4,–
CCC(C)(C)OC [2-methoxy-2-methylbutane] + CCn1cc[n+](C)c1.CS(=O)(=O)[O-],40.3 ± 2.8,37.8 ± 2.6,35.8 ± 2.5,34 ± 2.3,32.6 ± 2.2,–
C1CCCC1 [cyclopentane] + CCn1cc[n+](C)c1.CS(=O)(=O)[O-],46.2 ± 3.2,42.2 ± 2.9,39.5 ± 2.7,36.1 ± 2.5,33 ± 2.3,–
CCCCCCCC [octane] + CCn1cc[n+](C)c1.CS(=O)(=O)[O-],597 ± 41,505 ± 35,453 ± 31,388 ± 27,350 ± 24,–

SMILES,activity coefficient (308.15 K),activity coefficient (318.15 K),activity coefficient (328.15 K),activity coefficient (338.15 K),activity coefficient (348.15 K),activity coefficient (358.15 K)
CCCC(C)=O [pentan-2-one] + CCn1cc[n+](C)c1.CS(=O)(=O)[O-],7.83 ± 0.53,7.66 ± 0.52,7.52 ± 0.51,7.39 ± 0.5,7.26 ± 0.5,7.14 ± 0.49
C=CCCCCCCCC [1-decene] + CCn1cc[n+](C)c1.CS(=O)(=O)[O-],654 ± 45,584 ± 40,528 ± 36,479 ± 33,434 ± 30,–
C1CCCCCCC1 [cyclooctane] + CCn1cc[n+](C)c1.CS(=O)(=O)[O-],163 ± 11,143 ± 10,128 ± 9,114 ± 8,101 ± 7,–
C1CCCCCC1 [cycloheptane] + CCn1cc[n+](C)c1.CS(=O)(=O)[O-],113 ± 8,99.8 ± 6.9,90.7 ± 6.2,79.9 ± 5.5,72.6 ± 5,–
Cc1ccccc1 [toluene] + CCn1cc[n+](C)c1.CS(=O)(=O)[O-],9.13 ± 0.62,9.03 ± 0.62,8.88 ± 0.61,8.77 ± 0.6,8.65 ± 0.59,8.53 ± 0.58
CCC(=O)CC [pentan-3-one] + CCn1cc[n+](C)c1.CS(=O)(=O)[O-],8.08 ± 0.55,7.96 ± 0.54,7.86 ± 0.54,7.75 ± 0.53,7.63 ± 0.52,7.53 ± 0.51
CC#N [acetonitrile] + CCn1cc[n+](C)c1.CS(=O)(=O)[O-],0.799 ± 0.052,0.818 ± 0.053,0.841 ± 0.054,0.86 ± 0.06,0.877 ± 0.056,0.892 ± 0.057
CCCCCCCCCC [decane] + CCn1cc[n+](C)c1.CS(=O)(=O)[O-],1320 ± 91,1180 ± 82,1040 ± 72,925 ± 64,835 ± 58,762 ± 53
O [water] + CCn1cc[n+](C)c1.CS(=O)(=O)[O-],–,0.071 ± 0.03,0.075 ± 0.03,0.079 ± 0.03,0.083 ± 0.03,0.088 ± 0.03
CC(C)=O [acetone] + CCn1cc[n+](C)c1.CS(=O)(=O)[O-],308 ± 21,318 ± 22,328 ± 23,338 ± 23,348 ± 24,358 ± 25
"Cc1ccccc1C [1,2-dimethylbenzene] + CCn1cc[n+](C)c1.CS(=O)(=O)[O-]",15 ± 1,14.6 ± 1,14.3 ± 1,14 ± 1,13.8 ± 0.9,13.5 ± 0.9
C#CCCCCC [1-heptyne] + CCn1cc[n+](C)c1.CS(=O)(=O)[O-],14.4 ± 1,14.6 ± 1,14.5 ± 1,14.6 ± 1,14.6 ± 1,–
"Cc1ccc(C)cc1 [1,4-dimethylbenzene] + CCn1cc[n+](C)c1.CS(=O)(=O)[O-]",18.6 ± 1.3,18.7 ± 1.3,18.7 ± 1.3,18.8 ± 1.3,18.8 ± 1.3,18.9 ± 1.3
"Cc1cccc(C)c1 [1,3-dimethylbenzene] + CCn1cc[n+](C)c1.CS(=O)(=O)[O-]",19.7 ± 1.3,19.1 ± 1.3,18.6 ± 1.3,18.1 ± 1.2,17.6 ± 1.2,17.1 ± 1.2
C#CCCCCCC [1-octyne] + CCn1cc[n+](C)c1.CS(=O)(=O)[O-],26.2 ± 1.8,26.2 ± 1.8,25.6 ± 1.8,25.3 ± 1.7,25.1 ± 1.7,–
C=CCCCC [hex-1-ene] + CCn1cc[n+](C)c1.CS(=O)(=O)[O-],85.1 ± 5.8,77.1 ± 5.3,70.4 ± 4.8,63.9 ± 4.4,–,–
C=CCCCCCC [oct-1-ene] + CCn1cc[n+](C)c1.CS(=O)(=O)[O-],258 ± 18,228 ± 16,206 ± 14,187 ± 13,170 ± 12,–
CCOCC [diethyl ether] + CCn1cc[n+](C)c1.CS(=O)(=O)[O-],19.2 ± 1.3,18.2 ± 1.2,17.5 ± 1.2,16.8 ± 1.1,16.1 ± 1.1,–
c1ccsc1 [thiophene] + CCn1cc[n+](C)c1.CS(=O)(=O)[O-],1.87 ± 0.13,1.92 ± 0.13,1.96 ± 0.13,2 ± 0.14,2.05 ± 0.14,2.09 ± 0.14
